According to patent publication US7217730B2, “Method for the use of pyranoindole derivatives to treat infection with Hepatitis C virus” (Wyeth, priority 2002, dated 2007):

Target: T1, NS5B from the BK strain (genotype 1b) (Hepatitis C virus genotype 1b, UniProt P26663)
T1 construct: NS5B from the BK strain (genotype 1b) is expressed in E. coli as a protein in which the 21 C-terminal amino acids are replaced; made in house; host or cells: E. coli
Assay: Hepatitis C polymerase inhibition, NS5B BK strain, 33P-GTP filter assay
Type: biochemical
Conditions: Table 1A; for inhibition at 20 µM: 20 μM compound, read-out: HCV pol % inh at 20 μM; for IC50: NS5B BK strain, read-out: HCV pol BK IC50
Method in brief: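 E. coli-expressed NS5B (BK, genotype 1b) with the 21 C-terminal residues replaced by a linker-His6 tag was preincubated with compound for 15 min at room temperature. It then extended a hairpin-primed heteropolymeric RNA (~3 nM, ~760 nt product) with α-[33P]-GTP for 2 h at 22–25° C. The reaction was stopped with EDTA, and incorporated label was counted on filters.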

T1 sequence (P26663 2420-2989): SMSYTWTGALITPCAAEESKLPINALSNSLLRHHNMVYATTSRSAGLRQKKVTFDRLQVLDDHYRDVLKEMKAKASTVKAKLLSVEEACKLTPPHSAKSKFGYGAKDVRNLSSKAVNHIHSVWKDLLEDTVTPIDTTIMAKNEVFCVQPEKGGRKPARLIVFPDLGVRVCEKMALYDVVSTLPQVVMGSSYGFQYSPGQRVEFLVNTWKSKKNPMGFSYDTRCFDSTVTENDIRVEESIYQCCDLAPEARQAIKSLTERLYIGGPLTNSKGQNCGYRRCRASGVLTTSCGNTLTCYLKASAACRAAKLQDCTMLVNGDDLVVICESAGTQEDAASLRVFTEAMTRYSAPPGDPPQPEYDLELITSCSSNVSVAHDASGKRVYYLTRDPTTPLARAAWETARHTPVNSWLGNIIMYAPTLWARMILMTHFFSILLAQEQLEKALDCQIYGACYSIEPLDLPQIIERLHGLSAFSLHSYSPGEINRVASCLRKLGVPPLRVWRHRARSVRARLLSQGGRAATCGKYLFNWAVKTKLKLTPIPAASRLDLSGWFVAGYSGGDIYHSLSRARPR

**Q.** What does the source list for `CCCC1(CC(=O)O)OCCc2c1[nH]c1c(F)ccc(-c3cccc(N)c3)c21` (centres unmarked) [Example 151, [5-(3-aminophenyl)-8-fluoro-1-propyl-1,3,4,9-tetrahydropyrano[3,4-b]indol-1-yl]acetic acid]?
**A.** inhibition at 20 µM: 34%; IC50: > 20000 nM

**Q.** For `CCCC1(CC(=O)O)OCCc2c1[nH]c1c(F)ccc(Br)c21` (centres unmarked) [Example 152, (5-bromo-8-fluoro-1-propyl-1,3,4,9-tetrahydropyrano[3,4-b]indol-1-yl)acetic acid], which inhibition at 20 µM is on record?
**A.** 87%

**Q.** And the IC50?
**A.** 1000 nM

**Q.** With `CCCC1(CC(=O)O)OCCc2c1[nH]c1c(C)ccc(Br)c21` (centres unmarked) [Example 153, (5-bromo-8-methyl-1-propyl-1,3,4,9-tetrahydropyrano[3,4-b]indol-1-yl)acetic acid] as the compound, how does the inhibition at 20 µM read?
**A.** 93%

**Q.** What about the IC50 of the same compound?
**A.** 300 nM

**Q.** With `CC1(CC(=O)O)OCCc2c1[nH]c1c(Cl)cc(Cl)c(Cl)c21` (centres unmarked) [Example 154, (5,6,8-trichloro-1-methyl-1,3,4,9-tetrahydropyrano[3,4-b]indol-1-yl)acetic acid] as the compound, how does the inhibition at 20 µM read?
**A.** 22%

**Q.** And the IC50?
**A.** 22400 nM

**Q.** With `CCC1(CC(=O)O)OCCc2c1[nH]c1c(Cl)cc(Cl)c(Cl)c21` (centres unmarked) [Example 155, (5,6,8-trichloro-1-ethyl-1,3,4,9-tetrahydropyrano[3,4-b]indol-1-yl)acetic acid] as the compound, how does the inhibition at 20 µM read?
**A.** 84%

**Q.** And the IC50?
**A.** 470 nM

**Q.** Which inhibition at 20 µM does the source give for `CCCC1(CC(=O)O)OCCc2c1[nH]c1c(Cl)cc(Cl)c(Cl)c21` (centres unmarked) [Example 156, (5,6,8-trichloro-1-propyl-1,3,4,9-tetrahydropyrano[3,4-b]indol-1-yl)acetic acid] here?
**A.** 88%

**Q.** What about the IC50 of the same compound?
**A.** 80 nM

**Q.** With `CC(C)C1(CC(=O)O)OCCc2c1[nH]c1c(Cl)cc(Cl)c(Cl)c21` (centres unmarked) [Example 157, (5,6,8-trichloro-1-isopropyl-1,3,4,9-tetrahydropyrano[3,4-b]indol-1-yl)acetic acid] as the compound, how does the inhibition at 20 µM read?
**A.** 89%

**Q.** What about the IC50 of the same compound?
**A.** 600 nM

**Q.** Which inhibition at 20 µM does the source give for `CCCCC1(CC(=O)O)OCCc2c1[nH]c1c(Cl)cc(Cl)c(Cl)c21` (centres unmarked) [Example 158, (1-butyl-5,6,8-trichloro-1,3,4,9-tetrahydropyrano[3,4-b]indol-1-yl)acetic acid] here?
**A.** 91%

**Q.** What about the IC50 of the same compound?
**A.** 280 nM

**Q.** What does the source list for `C/C=C/CCC1(CC(=O)O)OCCc2c1[nH]c1c(Cl)cc(Cl)c(Cl)c21` (centres unmarked) [Example 159, {5,6,8-trichloro-1-[(3E)-pent-3-enyl]-1,3,4,9-tetrahydropyrano[3,4-b]indol-1-yl}acetic acid]?
**A.** inhibition at 20 µM: 36%; IC50: > 20000 nM

**Q.** How did the inhibition at 20 µM turn out when `O=C(O)CC1(c2ccccc2)OCCc2c1[nH]c1c(Cl)cc(Cl)c(Cl)c21` (centres unmarked) [Example 160, (5,6,8-trichloro-1-phenyl-1,3,4,9-tetrahydropyrano[3,4-b]indol-1-yl)acetic acid] was run?
**A.** 15%

**Q.** And the IC50?
**A.** > 20000 nM

**Q.** Which results are given for `O=C(O)CC1(c2ccc(C(=O)O)cc2)OCCc2c1[nH]c1c(Cl)cc(Cl)c(Cl)c21` (centres unmarked) [Example 161, 4-[1-(carboxymethyl)-5,6,8-trichloro-1,3,4,9-tetrahydropyrano[3,4-b]indol-1-yl]benzoic acid]?
**A.** inhibition at 20 µM: 74%; IC50: 300 nM

**Q.** `O=C(O)CC1(c2ccoc2)OCCc2c1[nH]c1c(Cl)cc(Cl)c(Cl)c21` (centres unmarked) [Example 162, [5,6,8-trichloro-1-(3-furyl)-1,3,4,9-tetrahydropyrano[3,4-b]indol-1-yl]acetic acid] was tested. Which inhibition at 20 µM did it give?
**A.** 73%

**Q.** What about the IC50 of the same compound?
**A.** 2400 nM

**Q.** How did the inhibition at 20 µM turn out when `CCC1(CC(=O)O)OCCc2c1[nH]c1c(F)cc(C)c(Br)c21` (centres unmarked) [Example 164, (5-bromo-1-ethyl-8-fluoro-6-methyl-1,3,4,9-tetrahydropyrano[3,4-b]indol-1-yl)acetic acid] was run?
**A.** 77%

**Q.** What about the IC50 of the same compound?
**A.** 2000 nM

**Q.** What does the source list for `CCCC1(CC(=O)O)OCCc2c1[nH]c1c(F)cc(C)c(Br)c21` (centres unmarked) [Example 165, (5-bromo-8-fluoro-6-methyl-1-propyl-1,3,4,9-tetrahydropyrano[3,4-b]indol-1-yl)acetic acid]?
**A.** inhibition at 20 µM: 89%; IC50: 600 nM

**Q.** How did the inhibition at 20 µM turn out when `Cc1cc(F)c2[nH]c3c(c2c1Br)CCOC3(CC(=O)O)C(C)C` (centres unmarked) [Example 166, (5-bromo-8-fluoro-1-isopropyl-6-methyl-1,3,4,9-tetrahydropyrano[3,4-b]indol-1-yl)acetic acid] was run?
**A.** 55%

**Q.** What about the IC50 of the same compound?
**A.** 3700 nM

**Q.** With `CCCCC1(CC(=O)O)OCCc2c1[nH]c1c(F)cc(C)c(Br)c21` (centres unmarked) [Example 167, (5-bromo-1-butyl-8-fluoro-6-methyl-1,3,4,9-tetrahydropyrano[3,4-b]indol-1-yl)acetic acid] as the compound, how does the inhibition at 20 µM read?
**A.** 80%

**Q.** And the IC50?
**A.** 3000 nM

**Q.** Which results are given for `Cc1cc(F)c2[nH]c3c(c2c1Br)CCOC3(CC(=O)O)c1ccccc1` (centres unmarked) [Example 168, (5-bromo-8-fluoro-6-methyl-1-phenyl-1,3,4,9-tetrahydropyrano[3,4-b]indol-1-yl)acetic acid]?
**A.** inhibition at 20 µM: 4%; IC50: > 10000 nM

**Q.** How did the inhibition at 20 µM turn out when `Cc1cc(F)c2[nH]c3c(c2c1Br)CCOC3(CC(=O)O)c1ccc(C(=O)O)cc1` (centres unmarked) [Example 169, 4-[5-bromo-1-(carboxymethyl)-8-fluoro-6-methyl-1,3,4,9-tetrahydropyrano[3,4-b]indol-1-yl]benzoic acid] was run?
**A.** 82%

**Q.** And the IC50?
**A.** 220 nM

**Q.** Which results are given for `CCCCC1(CC(=O)O)OCCc2c1[nH]c1c(F)cc(C)c(C#N)c21` (centres unmarked) [Example 170, (1-butyl-5-cyano-8-fluoro-6-methyl-1,3,4,9-tetrahydropyrano[3,4-b]indol-1-yl)acetic acid]?
**A.** inhibition at 20 µM: 53%; IC50: 1000 nM

**Q.** How did the inhibition at 20 µM turn out when `Cc1cc(F)c2[nH]c3c(c2c1C#N)CCOC3(CC(=O)O)c1ccccc1` (centres unmarked) [Example 171, (5-cyano-8-fluoro-6-methyl-1-phenyl-1,3,4,9-tetrahydropyrano[3,4-b]indol-1-yl)acetic acid] was run?
**A.** 3%

**Q.** What about the IC50 of the same compound?
**A.** > 10000 nM

**Q.** How did the inhibition at 20 µM turn out when `Cc1cc(F)c2[nH]c3c(c2c1C#N)CCOC3(CC(=O)O)c1ccc(C(=O)O)cc1` (centres unmarked) [Example 172, 4-[1-(carboxymethyl)-5-cyano-8-fluoro-6-methyl-1,3,4,9-tetrahydropyrano[3,4-b]indol-1-yl]benzoic acid] was run?
**A.** 74%

**Q.** And the IC50?
**A.** 1700 nM

**Q.** What does the source list for `Cc1cc(Cl)c2[nH]c3c(c2c1Br)CCOC3(C)CC(=O)O` (centres unmarked) [Example 173, (5-bromo-8-chloro-1,6-dimethyl-1,3,4,9-tetrahydropyrano[3,4-b]indol-1-yl)acetic acid]?
**A.** inhibition at 20 µM: 19%; IC50: > 5000 nM

**Q.** With `CCC1(CC(=O)O)OCCc2c1[nH]c1c(Cl)cc(C)c(Br)c21` (centres unmarked) [Example 174, (5-bromo-8-chloro-1-ethyl-6-methyl-1,3,4,9-tetrahydropyrano[3,4-b]indol-1-yl)acetic acid] as the compound, how does the inhibition at 20 µM read?
**A.** 70%

**Q.** And the IC50?
**A.** > 5000 nM

**Q.** Which results are given for `CCCC1(CC(=O)O)OCCc2c1[nH]c1c(Cl)cc(C)c(Br)c21` (centres unmarked) [Example 175, (5-bromo-8-chloro-6-methyl-1-propyl-1,3,4,9-tetrahydropyrano[3,4-b]indol-1-yl)acetic acid]?
**A.** inhibition at 20 µM: 84%; IC50: 500 nM

**Q.** `Cc1cc(Cl)c2[nH]c3c(c2c1Br)CCOC3(CC(=O)O)C(C)C` (centres unmarked) [Example 176, (5-bromo-8-chloro-1-isopropyl-6-methyl-1,3,4,9-tetrahydropyrano[3,4-b]indol-1-yl)acetic acid] was tested. Which inhibition at 20 µM did it give?
**A.** 49%

**Q.** What about the IC50 of the same compound?
**A.** > 5000 nM

**Q.** Which results are given for `CCCCC1(CC(=O)O)OCCc2c1[nH]c1c(Cl)cc(C)c(Br)c21` (centres unmarked) [Example 177, (5-bromo-1-butyl-8-chloro-6-methyl-1,3,4,9-tetrahydropyrano[3,4-b]indol-1-yl)acetic acid]?
**A.** inhibition at 20 µM: 70%; IC50: 4000 nM

**Q.** What does the source list for `C/C=C/CCC1(CC(=O)O)OCCc2c1[nH]c1c(Cl)cc(C)c(Br)c21` (centres unmarked) [Example 178, {5-bromo-8-chloro-6-methyl-1-[(3E)-pent-3-enyl]-1,3,4,9-tetrahydropyrano[3,4-b]indol-1-yl}acetic acid]?
**A.** inhibition at 20 µM: < 32%; IC50: > 5000 nM

**Q.** For `Cc1cc(Cl)c2[nH]c3c(c2c1Br)CCOC3(CC(=O)O)c1ccccc1` (centres unmarked) [Example 179, (5-bromo-8-chloro-6-methyl-1-phenyl-1,3,4,9-tetrahydropyrano[3,4-b]indol-1-yl)acetic acid], which inhibition at 20 µM is on record?
**A.** 15%

**Q.** What about the IC50 of the same compound?
**A.** > 5000 nM

**Q.** Which inhibition at 20 µM does the source give for `Cc1cc(Cl)c2[nH]c3c(c2c1Br)CCOC3(CC(=O)O)c1ccc(C(=O)O)cc1` (centres unmarked) [Example 180, 4-[5-bromo-1-(carboxymethyl)-8-chloro-6-methyl-1,3,4,9-tetrahydropyrano[3,4-b]indol-1-yl]benzoic acid] here?
**A.** 92%

**Q.** And the IC50?
**A.** 810 nM

**Q.** Which results are given for `Cc1cc(Cl)c2[nH]c3c(c2c1C#N)CCOC3(C)CC(=O)O` (centres unmarked) [Example 181, (8-chloro-5-cyano-1,6-dimethyl-1,3,4,9-tetrahydropyrano[3,4-b]indol-1-yl)acetic acid]?
**A.** inhibition at 20 µM: 14%; IC50: > 5000 nM

**Q.** Which inhibition at 20 µM does the source give for `CCC1(CC(=O)O)OCCc2c1[nH]c1c(Cl)cc(C)c(C#N)c21` (centres unmarked) [Example 182, (8-chloro-5-cyano-1-ethyl-6-methyl-1,3,4,9-tetrahydropyrano[3,4-b]indol-1-yl)acetic acid] here?
**A.** 55%

**Q.** And the IC50?
**A.** > 5000 nM

**Q.** Which results are given for `CCCC1(CC(=O)O)OCCc2c1[nH]c1c(Cl)cc(C)c(C#N)c21` (centres unmarked) [Example 183, (8-chloro-5-cyano-6-methyl-1-propyl-1,3,4,9-tetrahydropyrano[3,4-b]indol-1-yl)acetic acid]?
**A.** inhibition at 20 µM: 88%; IC50: 590 nM

**Q.** Which results are given for `Cc1cc(Cl)c2[nH]c3c(c2c1C#N)CCOC3(CC(=O)O)C(C)C` (centres unmarked) [Example 184, (8-chloro-5-cyano-1-isopropyl-6-methyl-1,3,4,9-tetrahydropyrano[3,4-b]indol-1-yl)acetic acid]?
**A.** inhibition at 20 µM: 39%; IC50: > 5000 nM

**Q.** For `CCCCC1(CC(=O)O)OCCc2c1[nH]c1c(Cl)cc(C)c(C#N)c21` (centres unmarked) [Example 185, (1-butyl-8-chloro-5-cyano-6-methyl-1,3,4,9-tetrahydropyrano[3,4-b]indol-1-yl)acetic acid], which inhibition at 20 µM is on record?
**A.** 69%

**Q.** What about the IC50 of the same compound?
**A.** 4000 nM
